Consider one substance from patent US20220133833A1, “USE OF GRAPE AND/OR SOY SUPPLEMENTS AGAINST COVID-19 AND 92 OTHER VIRUSES AND BACTERIA INCLUDING OTHER UNKNOWN VIRUSES AND BACTERIA” (priority 2020, published 2022).

Where two headings read alike, the source gives them in different places.

The data set relates to H1N1 virus.
Where [1] appears, read: one-week preventive treatment, 0.2 ml/0.4 ml/mouse iv/ip QD, till the end of the study.

Turning to APOA-1 [RAAS-2], the “prevention of the Bird Flu Epidemiology in Mice” value (mice, H1N1) was found to be 100%. Moreover, under setting [1], the “protection from body weight loss” value is “totally protected” and the protection from death result was “totally protected”. In addition, the “protection of body weight loss compared with oseltamivir treatment” value (preventive treatment) is “even better than that by oseltamivir treatment”. Further, the “adverse finding / tolerance” value (therapeutic group (G2), some of the mice, day 5 post H1N1 challenge and afterward) is listed as “haematuria”. Besides, for the setting “therapeutic treatment, 0.2 ml/0.4 ml iv/ip QD, all 5 mice, days 2 to 5 post H1N1 infection”, the “protection from body weight loss” value is on record as “partial”. Also, the “mice protected from death” value (therapeutic treatment, 0.2 ml/0.4 ml iv/ip QD, group of 5 mice) is on record as “one mouse out of 5 mice”.
